In patent publication US20140275102A1, “Solid State Forms of 6-[4-[3-((R)-2-Methylpyrrolidine-1-yl)-propoxy]phenyl] 2H-pyridazine-3-one Hydrochloride” (Cephalon Inc., priority 2013, published 2014):

How the values were obtained:
Assay type in all cases: physicochemical
[1] = Solid state stress stability at 40° C./75% RH (XRPD, stability-indicating HPLC); settings: for Area Purity (%): 40° C./75% RH, HPLC
Experimental: Powder X-Ray Diffraction patterns were recorded on a PANalytical X Pert Pro diffractometer equipped with an X celerator detector using Cu Kα radiation at 40 kV and 40 mA. Kα1 radiation is obtained with a highly oriented crystal (Ge111) incident beam monochromator. A 10 mm beam mask, and fixed (¼°) divergence and anti-scatter (⅛°) slits were inserted on the incident beam side. A fixed 0.10 mm receiving slit was inserted on the diffracted beam side. […] The sample was spread on silicon zero background (ZBG) plate for the measurement. The sample was rotated at 4°/min on a PANalytical PW3064 Spinner.
Typically 10 μL aliquots of the sample solutions were diluted to 1 mL with acetonitrile and the assay concentrations were determined from an average of duplicate injections using the following HPLC method. The purity and impurity analyses are done using conventional HPLC.
Stress stability studies were performed to assess the influence of temperature and humidity on stability of Forms A1 and H4A1. A stability-indicating HPLC assay method was developed for quantification of Compound 1. The developed method, described above in section VII, is specific, accurate, precise and robust.

[2] = Gravimetric Vapor Sorption (GVS); settings: for Moisture uptake / XRPD analysis of the after GVS sample: GVS 70-0-90% RH
Experimental: Gravimetric Vapor Sorption experiments have been carried out using the DVS-HT instrument (Surface Measurement Systems, London, UK). This instrument measures the uptake and loss of vapor gravimetrically using a recording ultra-microbalance with a mass resolution of ±0.1 μg. […] The desired temperature is maintained at ±0.1° C. […] (3 cycles). The DVS experiment was started at 70% RH (red line) to ensure that there was no moisture loss. The sample was kept at 70% RH for 2 hours. […] After each cycle the moisture uptake decreases to 21, 15, and 2.3% respectively at 90% RH. Significant polymorphic changes were observed by XRPD analysis of the “after GVS” samples.

[3] = Stability to mechanical stress (grinding, XRPD); settings: after thirty minutes of grinding
Experimental: A Wig-1-Bug (Piketech, USA) was used to grind Forms A1 and H-4A1. Each sample (50 mg) was ground for periods of 5, 10, 15 and 30 minutes. Each grinding was carried out in a 2.82 cm^3 container using 0.9 g stainless steel ball ([…]). The vial was swung through a 6.5° arc at 3200 rpm, causing the ball to strike the end of the vial at over 100 Hz.

[4] = Variable temperature XRPD (VT-XRPD)
Experimental: Variable temperature studies were performed with an Anton Paar TTK450 temperature chamber under computer control through an Anton Paar TCU100 temperature control unit. Typically the measurements were done with a nitrogen flow through the camera. Two measurement schemes were used, restricted and continuous. In the restricted mode, measurements were made, only after the TK450 chamber reached the requested temperature. In the continuous mode, the sample was heated at 10° C./minute and fast scans were measured as the temperature changed. After the requested temperature was reached, the sample was cooled at 35° C./minute and a slow scan measured 25° C. The temperatures chosen were based on DSC results. For the diffractometer set-up a 10 mm beam mask, 0.04 radian Soller slits and fixed (1⁄4°) divergence and anti-scatter (1⁄8°) slits were inserted on the incident beam side. A fixed 0.10 mm receiving slit, 0.04 radian Soller slits and a 0.02 mm Nickel filter were inserted on the diffracted beam side. […] A variable temperature study was performed for Form A1 according to the protocol set out in II above.

[5] = Solid-solid transition on storage at controlled humidity, 25° C. (XRPD)
Experimental: Approximately 100 mg of Form A1 was exposed to 100% RH at 25° C. over 1 day. Analysis by XRPD confirmed quantitative conversion of the material to Form […].

With `C[C@@H]1CCCN1CCCOc1ccc(-c2ccc(=O)[nH]n2)cc1.Cl` [Form A1, 6-[4-[3-((R)-2-methylpyrrolidine-1-yl)-propoxy]phenyl]2H-pyridazine-3-one hydrochloride] the “Changes on storage as assessed by XRPD” value ([1]; 4 weeks of storage at 40 degrees C. at 75% relative humidity) was “No significant changes”, the Chemical degradation ([1]; 40° C./75% RH after 4 weeks) was “chemical degradation was not observed” and the “Water uptake from the environment in the solid state” value ([1]; 40° C./75% RH after 4 weeks) was “not observed to take up water”. For the same compound, the “Area Purity (%)” value ([1]; 0 days, hydrochloride) was 99.5%, the “Area Purity (%)” value ([1]; 7 days, hydrochloride) was 99.6% and the “Area Purity (%)” value ([1]; 14 days, hydrochloride) was 99.7%. For the same compound, the “Area Purity (%)” value ([1]; 28 days) was 99.5%, the “Hydrate formation under GVS conditions” value ([2]; GVS, 0-90% RH cycles) was “did not appear to form a hydrate” and the “Hygroscopicity (adsorption and desorption curves)” value ([2]; GVS, 0-90% RH cycles) was “not hygroscopic”. For the same compound, the “Amount of moisture adsorbed” value ([2]; GVS, at 90% RH) was “approximately 1.8%”, the “Amount of moisture adsorbed” value ([2]; GVS, relative humidity not printed (below 90% RH)) was “less than 0.8%” and the “XRPD before and after GVS” value ([2]; after GVS, 0-90% RH cycles) was “no significant changes after GVS”. For the same compound, the “Change in crystal form on grinding (XRPD)” value [3] was “did not generate a change in crystal form”, the “Crystallinity by XRPD after grinding” value [3] was “crystallinity had been significantly reduced” and the “Solid-solid transformation on heating (VT-XRPD)” value ([4]; temperature range of 20° C. to 250° C.) was “No solid-solid transformation was observed”. The “XRPD after exposure to humidity” value ([5]; 100% RH at 25° C. over 1 day) was “quantitative conversion of the material to Form H4A1”.
With `C[C@@H]1CCCN1CCCOc1ccc(-c2ccc(=O)[nH]n2)cc1.Cl` [Form B1, 6-[4-[3-((R)-2-methylpyrrolidine-1-yl)-propoxy]phenyl]2H-pyridazine-3-one hydrochloride] the “Temperature at which polymorphic transformation to Form A1 was observed (VT-XRPD)” value ([4]; Form B1 made by dehydrating Form H4A1 at 25-100° C., 0% RH) was 220 °C.
In the case of `C[C@@H]1CCCN1CCCOc1ccc(-c2ccc(=O)[nH]n2)cc1.Cl` [Form H4A1, 6-[4-[3-((R)-2-methylpyrrolidine-1-yl)-propoxy]phenyl]2H-pyridazine-3-one hydrochloride], the “Area Purity (%)” value ([1]; 0 days, hydrochloride) is reported as 99.6%, the “Area Purity (%)” value ([1]; 7 days, hydrochloride) is reported as 99.5% and the “Area Purity (%)” value ([1]; 14 days, hydrochloride) is reported as 99.5%. For the same compound, the “Area Purity (%)” value ([1]; 28 days) was 99.5%, the “Physical and chemical stability on storage” value ([1]; 28 days at 40° C. and 75% RH) was “physically and chemically stable” and the Moisture uptake ([2]; at 90% RH, first cycle) was 21%. For the same compound, the Moisture uptake ([2]; at 90% RH, second cycle) was 15%, the Moisture uptake ([2]; at 90% RH, third cycle) was 2.3% and the “XRPD analysis of the after GVS sample” value ([2]; first cycle) was “mixture of Forms A1 and H4A1”. For the same compound, the “XRPD analysis of the after GVS sample” value ([2]; second cycle) was “mixture of Forms A1 and H4A1”, the “XRPD analysis of the after GVS sample” value ([2]; third cycle) was “Complete conversion of Form H4A1 to Form A1” and the XRPD after storage ([5]; 25° C./0% RH for 7 days) was “quantitative conversion of the material to Form A1”.
